# Like-named read-outs stand apart in the source and are kept apart here.
# What was measured:
# [1] = In vitro metabolic stability in liver microsomes (calculation of CL and Fmax); assay type: in vitro ADME, human; settings: 1 μM, 0.5 mg/mL protein, maximal oral bioavailability calculated from half-life
# Protocol: In Vitro Metabolic Stability Assays Determination of in vitro metabolic stability in microsomes (including calculation of hepatic in vivo blood clearance (CL) and of maximal oral bioavailability (Fmax))
# The metabolic assay was started shortly afterwards by adding the test compound to the incubation at a final volume of 1 mL. Organic solvent in the incubations was limited to […] dimethylsulfoxide (DMSO) and ≤1% acetonitrile. […] Samples were frozen at −20° C. overnight, subsequently centrifuged for 15 minutes at 3000 rpm and the supernatant was analyzed with an Agilent 1200 HPLC-system with LCMS/MS detection.
# The half-life of a test compound was determined from the concentration-time plot. From the half-life (kel: slope of concentration-time plot; half-life=ln 2/kel) the intrinsic clearances were calculated. Together with the additional parameters liver blood flow, specific liver weight and microsomal protein content the hepatic in vivo blood clearance (CL) and the maximal oral bioavailability (Fmax) were calculated for the different species.
# (§1) Metabolic instability is often the main clearance mechanism of xenobiotica leading to a high CL and low bioavailability which may eventually result in a short half-life and a low exposure after oral administration. Thus, reducing the susceptibility of metabolic degradation usually leads to a more favourable pharmacokinetic profile. When using liver microsomes as incubation matrix main phase I metabolic reactions, typically oxidoreductive reactions by cytochrome P450 enzymes and flavin mono-oxygenases (FMO) and hydrolytic reactions by esterases/amidases/epoxidhydrolases, are described. When the incubation of the test compound is performed in a hepatocyte matrix all potential hepatic metabolic processes (phase I and phase II) are covered.
# rat hepatocytes = assay: In vitro metabolic stability in rat hepatocytes; assay type: in vitro ADME, Han Wistar rats; settings: 1 μM, 1.0×10^6 cells/mL, maximal oral bioavailability calculated from half-life
# Protocol: Determination of in vitro metabolic stability in rat hepatocytes (including calculation of hepatic in vivo blood clearance (CL))
# Hepatocytes from Han Wistar rats were isolated via a 2-step perfusion method. After perfusion, the liver was carefully removed from the rat: the liver capsule was opened and the hepatocytes were gently shaken out into a Petri dish with ice-cold Williams' medium E (WME). The resulting cell suspension was filtered through sterile gaze in 50 mL falcon tubes and centrifuged at 50×g for 3 min at room temperature. The cell pellet was resuspended in 30 mL WME and centrifuged through a Percoll® gradient for 2 times at 100×g. The hepatocytes were washed again with WME and resuspended in medium containing 5% FCS. Cell viability was determined by trypan blue exclusion.
# The test compound was added to a final concentration of 1 μM. […] Samples were frozen at −20° C. overnight, subsequently centrifuged for 15 minutes at 3000 rpm and the supernatant was analyzed with an Agilent 1200 HPLC-system with LCMS/MS detection.
# The half-life of a test compound was determined from the concentration-time plot. From the half-life (kel: slope of concentration-time plot; half-life=ln 2/kel) the intrinsic clearances were calculated. Together with the additional parameters liver blood flow, amount of liver cells in vivo and in vitro.
# as §1
# CYP1A2 = CYP1A2 (Homo sapiens (Human), UniProt P05177); assay: CYP inhibition assay, CYP1A2
# Protocol: (§2) Method Description CYP Inhibition Assay
# (§3) Data analysis: The CYP-mediated activities in the presence of inhibitors were expressed as percentages of the corresponding control values. A sigmoid-shaped curve was fitted to the data, and the enzyme inhibition parameter IC50 was calculated using a nonlinear least-squares regression analysis of the plot of percent control activity versus concentration of the test inhibitor.
# CYP2C8 = CYP2C8 (Homo sapiens (Human), UniProt P10632); assay: CYP inhibition assay, CYP2C8; assay type: in vitro ADME; settings: human liver microsomes, probe amodiquine
# Protocol: as §2, §3
# CYP2C9 = CYP2C9 (Homo sapiens (Human), UniProt P11712); assay: CYP inhibition assay, CYP2C9; assay type: in vitro ADME; settings: human liver microsomes, probe diclofenac
# Protocol: as §2, §3
# CYP2D6 = CYP2D6 (Homo sapiens (Human), UniProt P10635); assay: CYP inhibition assay, CYP2D6; assay type: in vitro ADME; settings: human liver microsomes, probe dextromethorphan
# Protocol: as §2, §3
# CYP3A4 [2] = target: T1, CYP3A4 (Homo sapiens (Human), UniProt P08684); assay: CYP inhibition assay, CYP3A4; assay type: in vitro ADME; settings: human liver microsomes, probe midazolam
# Protocol: as §2, §3
# CYP3A4 [3] = target: T1, CYP3A4; assay: Pre-incubation CYP inhibition assay, CYP3A4 (time dependent inhibition); assay type: in vitro ADME; settings: human liver microsomes, probe midazolam, 30 min pre-incubation; read-out: CYP3A4 with preincubation IC50
# Description: as §2
# [4] = Human liver cytosol stability assay; assay type: in vitro ADME; settings: human liver cytosol 1 mg/mL, 1 or 10 μM, 37° C.
# Protocol: Human Liver Cytosol Stability Assay
# Method description: Human liver cytosol (pooled, >30 male and female donors) was incubated with individual test compounds in order to compare the extent of depletion of test compound and formation of the respective oxidised metabolite. […] An incubation volume of 1000 μL was used. The test compound was added from a stock solution in acetonitrile at 1 or 10 μM concentration in the incubation. Incubations were performed at 37° C. Reactions were stopped at 0 h and 4 h after incubation by addition of 100 μL acetonitrile to 250 μL of incubation mixture. Precipitated proteins were removed by centrifugation at approximately 3000 rpm. The supernatants were stored at approximately −20° C. until they were analysed. […]
# Data analysis: The depletion of the test compound and formation of the corresponding metabolites were determined by decrease or increase of the corresponding peak area in the chromatogram after UV detection at approximately 300 nm 4 h after incubation compared to that at 0 h after incubation. […]
# [5] = system: CFA-induced mechanical hyperalgesia; assay: Rat CFA in vivo model (mechanical hyperalgesia, paw withdrawal threshold); set-up: species or system Male Sprague Dawley rats; settings: 3 mg/kg p.o., dosed 24 hours after CFA injection
# Protocol: Rat CFA In Vivo Model Male Sprague Dawley rats were used. Mechanical hyperalgesia was induced by injecting 25 μl of Complete Freund's Adjuvant (CFA) into the plantar surface of one hind paw. Mechanical hyperalgesia was measured using the Pressure Application Measurement apparatus (Ugo Basile, Gemonio, Italy). Briefly, a linearly increasing pressure was applied to an area of ˜50 mm2 of the plantar side of the hind paw until a behavioural response (paw withdrawal) was observed or until the pressure reached 1000 gf. The pressure at which the behavioural response occurred was recorded as the “Paw Withdrawal Threshold” (PWT). Both CFA-injected and contralateral PWTs were determined for each rat, in each treatment group and at each time point of the studies. […] Compounds were dosed 24 hours after CFA injection. Data were expressed as the mean PWT for each treatment group and at each time point. Data were analysed by performing a repeated measures two way ANOVA (time×treatment). Planned comparison of means (each versus vehicle) was performed by using a Dunnett's post hoc test, provided that a main effect was detected. […] More preferred examples of the present invention show rat CFA in vivo efficacy in the ‘Paw withdrawal threshold 6 hours post drug’ measure when dosed at 3 mg/kg p.o.
# [6] = system: CFA-induced mechanical hyperalgesia; assay: Mouse CFA in vivo model (von Frey filaments); set-up: species or system Female C57BL/6 mice; settings: 25 mg/kg p.o. b.i.d., 72 hrs after CFA-injection
# Protocol: Mouse CFA In Vivo Model […] Mechanical hyperalgesia was measured using von Frey filaments. Briefly, von Frey filaments were being used to stimulate the animal's hindpaw and a behavioural response was measured depending on the strength of the von Frey filament used. The strength of the filament was expressed in [g] and the threshold was recorded when a response of the animal was observed. Both CFA-injected and contralateral response thresholds were determined for each mouse and in each treatment group 72 hrs after CFA-injection. Compound application was done p.o. b.i.d., starting one hour before CFA injection. Data were expressed as the mean threshold for each treatment group. Data were analysed by performing a one way ANOVA over the different dose groups. Planned comparison of means (each versus vehicle) was performed by using a Dunnett's post hoc test, provided that a main effect was detected.
# vaginal hyperalgesia = assay: Rat dyspareunia model (visceromotor response to vaginal distension); assay type: in vivo, female Sprague Dawley rats
# Description: The visceromotor response (VMR) to vaginal distension was used in conscious animals as an objective measure of vaginal sensitivity. […] To measure VMR response, 2 Teflon-coated wire electrodes were sutured in the external oblique abdominal muscle, and tunneled subcutaneously to be exteriorized at the base of the neck for future access. On the day of VMR assessment, a lubricated small balloon (1 cm length) was inserted into the mid-vaginal canal. The balloon catheter was secured to the base of the tail and connected to a volume controller/timing device (infusion pump) for balloon distension. The vaginal balloon was inflated to ramp intensities of distension (0.05 ml increments every 20 sec.) to a maximal volume of 0.8 ml. The electrodes were connected to an amplifier (Animal Bio Amp, ADInstrunnents), and the abdominal electromyographic signal was recorded using a data acquisition system (PowerLab, ADInstrunnents) for off-line analysis using LabChart version 7. The number of abdominal muscle contractions was counted manually for each 0.1 ml distension step, as an index of vaginal pain. […] All data were expressed as mean±standard deviation (s.d.), for the number (n) of measured rats per group. […] Planned comparison of means (matched-volume versus vehicle) was performed using a Bonferroni post hoc test, provided that a main effect was detected. […]
# [7] = In vivo pharmacokinetics in dogs; settings: Beagle, plasma, dog
# Protocol: For pharmacokinetics after intragastral administration test compounds were given intragastral to fasted rats, dogs and monkeys. […] An aliquot of 100 μL from the supernatant (plasma) was taken and precipitated by addition of 400 μL cold acetonitril and frozen at −20° C. over night. Samples were subsequently thawed and centrifuged at 3000 rpm, 4° C. for 20 minutes. Aliquots of the supernatants were taken for analytical testing using an Agilent HPLC-system with LCMS/MS detection. PK parameters were calculated by non-compartmental analysis using a PK calculation software, (e.g. Phoenix WinNonlin®, Certara USA, Inc.).
# PK parameters directly taken or calculated from concentration time profiles after i.g.: Cmax: Maximal plasma concentration (directly taken from the profile in mg/L); Cmaxnorm: Cmax divided by the administered dose (in kg/L); Tmax: Time point at which Cmax was observed (in h).
# T1 sequence (P08684 whole entry): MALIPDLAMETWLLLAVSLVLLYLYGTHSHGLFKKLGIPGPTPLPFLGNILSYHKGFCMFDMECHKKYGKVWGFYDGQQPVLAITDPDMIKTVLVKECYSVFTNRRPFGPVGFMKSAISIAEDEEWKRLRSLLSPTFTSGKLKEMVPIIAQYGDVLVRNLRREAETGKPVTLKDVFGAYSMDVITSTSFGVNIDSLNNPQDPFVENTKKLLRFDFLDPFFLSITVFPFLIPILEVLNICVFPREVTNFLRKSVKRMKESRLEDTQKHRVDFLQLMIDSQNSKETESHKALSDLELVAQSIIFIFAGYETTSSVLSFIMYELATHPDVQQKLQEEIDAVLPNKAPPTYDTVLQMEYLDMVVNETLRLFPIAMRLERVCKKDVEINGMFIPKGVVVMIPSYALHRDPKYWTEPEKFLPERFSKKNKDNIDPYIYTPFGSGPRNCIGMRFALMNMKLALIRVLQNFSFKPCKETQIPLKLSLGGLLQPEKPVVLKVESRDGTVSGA
# Chain of CYP2D6 (P10635 whole entry): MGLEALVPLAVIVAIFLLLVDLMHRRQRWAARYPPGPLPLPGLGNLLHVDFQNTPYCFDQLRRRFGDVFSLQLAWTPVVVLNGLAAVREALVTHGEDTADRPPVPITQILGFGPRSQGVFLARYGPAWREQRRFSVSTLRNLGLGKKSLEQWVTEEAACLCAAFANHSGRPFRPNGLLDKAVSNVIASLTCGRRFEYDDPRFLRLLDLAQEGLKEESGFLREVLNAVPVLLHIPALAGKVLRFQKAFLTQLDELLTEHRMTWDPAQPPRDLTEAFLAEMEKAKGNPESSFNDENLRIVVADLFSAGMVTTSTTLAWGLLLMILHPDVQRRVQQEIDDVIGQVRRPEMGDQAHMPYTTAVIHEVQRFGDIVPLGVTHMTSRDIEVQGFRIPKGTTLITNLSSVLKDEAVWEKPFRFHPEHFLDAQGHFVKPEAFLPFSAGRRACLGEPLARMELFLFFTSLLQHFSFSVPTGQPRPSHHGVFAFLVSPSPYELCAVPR
# Chain of CYP2C9 (P11712 whole entry): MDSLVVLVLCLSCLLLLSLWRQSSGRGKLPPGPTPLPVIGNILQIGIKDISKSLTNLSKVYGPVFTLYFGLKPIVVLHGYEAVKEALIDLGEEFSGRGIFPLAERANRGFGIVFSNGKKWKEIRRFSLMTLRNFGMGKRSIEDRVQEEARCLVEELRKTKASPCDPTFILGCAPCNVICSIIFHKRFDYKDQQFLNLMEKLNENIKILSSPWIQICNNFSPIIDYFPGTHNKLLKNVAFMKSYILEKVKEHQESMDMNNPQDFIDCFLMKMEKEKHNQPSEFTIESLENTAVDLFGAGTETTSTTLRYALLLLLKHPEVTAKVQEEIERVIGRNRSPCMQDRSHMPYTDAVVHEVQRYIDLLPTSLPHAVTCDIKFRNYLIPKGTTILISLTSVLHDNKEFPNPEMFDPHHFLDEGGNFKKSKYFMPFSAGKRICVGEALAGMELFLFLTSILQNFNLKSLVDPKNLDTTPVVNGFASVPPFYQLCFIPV
# Chain of CYP2C8 (P10632 whole entry): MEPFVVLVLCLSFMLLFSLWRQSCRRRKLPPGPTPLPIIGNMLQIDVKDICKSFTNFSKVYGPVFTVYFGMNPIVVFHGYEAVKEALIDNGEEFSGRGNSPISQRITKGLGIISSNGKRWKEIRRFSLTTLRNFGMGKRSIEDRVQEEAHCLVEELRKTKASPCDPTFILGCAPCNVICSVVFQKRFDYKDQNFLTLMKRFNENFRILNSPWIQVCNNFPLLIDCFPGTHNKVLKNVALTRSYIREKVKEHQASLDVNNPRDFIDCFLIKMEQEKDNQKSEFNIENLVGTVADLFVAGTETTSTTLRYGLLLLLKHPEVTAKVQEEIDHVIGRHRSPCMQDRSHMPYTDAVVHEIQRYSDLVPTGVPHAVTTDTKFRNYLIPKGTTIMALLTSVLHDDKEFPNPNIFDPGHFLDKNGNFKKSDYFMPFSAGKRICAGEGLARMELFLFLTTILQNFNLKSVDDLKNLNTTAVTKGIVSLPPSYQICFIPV
# Chain of CYP1A2 (P05177 whole entry): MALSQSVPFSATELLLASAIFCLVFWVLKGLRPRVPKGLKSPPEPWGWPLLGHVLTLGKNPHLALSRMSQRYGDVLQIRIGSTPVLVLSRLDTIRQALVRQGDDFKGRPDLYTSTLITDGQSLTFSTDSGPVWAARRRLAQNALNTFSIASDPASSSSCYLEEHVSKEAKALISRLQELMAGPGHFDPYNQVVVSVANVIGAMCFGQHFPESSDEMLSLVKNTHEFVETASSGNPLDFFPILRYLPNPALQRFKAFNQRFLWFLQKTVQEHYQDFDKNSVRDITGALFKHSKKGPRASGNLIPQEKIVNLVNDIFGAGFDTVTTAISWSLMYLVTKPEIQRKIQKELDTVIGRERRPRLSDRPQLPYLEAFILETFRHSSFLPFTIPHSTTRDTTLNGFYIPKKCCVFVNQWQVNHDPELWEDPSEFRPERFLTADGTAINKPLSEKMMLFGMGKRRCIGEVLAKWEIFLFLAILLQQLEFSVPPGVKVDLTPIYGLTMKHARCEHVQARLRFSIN
Compound,Human liver microsome Fmax [1],Rat hepatocyte Fmax (rat hepatocytes),IC50 (CYP1A2),IC50 (CYP2C8),IC50 (CYP2C9),IC50 (CYP2D6),IC50 (CYP3A4 [2]),IC50 (CYP3A4 [3]),Test compound turnover after 4 h [4],Paw withdrawal threshold 6 hour-post drug [5],Efficacy mouse CFA model (von Frey response threshold) [6],vaginal hyperalgesia compared to vehicle-treated animals (vaginal hyperalgesia; 15 mg/kg oral b.i.d. during 2 weeks),"AUC of cumulative number of abdominal contractions against vaginal distension volume (vaginal hyperalgesia; 15 mg/kg oral b.i.d. for 2 weeks, 6 weeks post-implantation (off-drug), mean ± s.d.)","half-life ([7]; iv, 0.5 mg/kg i.v., read-out: Dog t½ i.v. (converted))","bioavailability ([7]; oral, 1 mg/kg p.o., 0.5 mg/kg i.v., read-out: Dog Bioavailability (BA))","half-life ([7]; po, 1 mg/kg p.o., read-out: Dog t½ p.o. (converted))"
"Cc1cnc(-c2cc(OC(C)C(C)O)cc(C(=O)N[C@H](C)c3cnc(C(F)(F)F)nc3)c2)s1 (single isomer, unassigned) [Example 163]",100%,53%,> 20 µM,> 20 µM,> 20 µM,> 20 µM,> 20 µM,> 20 µM,–,–,–,–,–,–,–,–
"Cc1cnc(-c2cc(O[C@@H]3CCOC3)cc(C(=O)N[C@H](C)c3cnc(C(F)(F)F)nc3)c2)s1 [Example 11, 3-(5-Methyl-1,3-thiazol-2-yl)-5-[(3R)-tetrahydrofuran-3-yloxy]-N-{(1R)-1-[2-(trifluoromethyl)pyrimidin-5-yl]ethyl}benzamide]",57%,52%,–,–,–,–,–,–,12%,639 ± 48 gf (*),0.682 g ± 0.122 (*),decreased vaginal hyperalgesia,1.64 ± 1.53 (17),8.8 h,70%,12 h

# Source: US10174016B2 (BAYER AKTIENGESELLSCHAFT, priority 2014, dated 2019)
